Test results: patent US8247211B2, “Glycopeptide antibiotics” (American Cyanamid Company, priority 2001, dated 2012)
Values after ≈ are worked out from the molar mass of the structure shown. Blank lines part the entries; values can stand above or below the molecule they belong to.

Assays:
Test in all cases: In vitro antibacterial evaluation: minimum inhibitory concentration (MIC), broth dilution method
Format in all cases: cell-based
Details in all cases: 18 hours at 35° C.
Escherichia coli = test system: Escherichia coli
In short: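 Test strains, among them recent clinical isolates carrying methicillin, penicillin and/or vancomycin resistance, were inoculated at 5×10^5 CFU/mL. A broth dilution series spanning 64-0.06 μg/mL in Muller-Hinton II […] (NCCLS M7-A2) defined the MIC as the lowest growth-inhibiting concentration.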

Enterococcus sp. = test system: Enterococcus sp.
In short: (§1)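 MIC by broth dilution in Mueller-Hinton II medium following NCCLS M7-A2. Inoculum was 5×10^5 CFU/mL and antibiotic was tested over 64-0.06 μg/mL. Gram-positive panel included clinical isolates resistant to methicillin, penicillin and/or vancomycin.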

Streptococcus sp. = test system: Streptococcus sp.
In short: as §1

Staphylococcus sp. = test system: Staphylococcus sp.
In short: as §1

[1] = Enterococcus faecalis (GC 2242)
[2] = Enterococcus faecalis (GC 2691)
[3] = Enterococcus faecalis (GC 3059)
[4] = broth dilution, inoculum 5×10^5 CFU/mL
[5] = Streptococcus agalactiae (GC 4564)
[6] = Streptococcus pneumoniae (ATCC 6301)
[7] = Streptococcus pneumoniae (GC 1894)
[8] = Streptococcus pneumoniae (GC 4565)
[9] = Streptococcus pyogenes (GC 4563)

MIC Escherichia coli (ATCC 25922) (Escherichia coli): >64 µg/mL
MIC Escherichia coli (GC 4559) (Escherichia coli): >64 µg/mL
MIC Escherichia coli (GC 4560) (Escherichia coli): 32 µg/mL (≈ 22 µM)
MIC Enterococcus avium (GC 4558) (Enterococcus sp.): 16 µg/mL (≈ 11 µM)
MIC Enterococcus faecalis (ATCC 29212) (Enterococcus sp.): 32 µg/mL (≈ 22 µM)
MIC Enterococcus faecalis (GC 2242) (Enterococcus sp.; [1]): 32 µg/mL (≈ 22 µM)
MIC Enterococcus faecalis (GC 2691) (Enterococcus sp.; [2]): 32 µg/mL (≈ 22 µM)
MIC Enterococcus faecalis (GC 3059) (Enterococcus sp.; [3]): 32 µg/mL (≈ 22 µM)
MIC Enterococcus faecalis (GC 4552) (Enterococcus sp.): 32 µg/mL (≈ 22 µM)
MIC Enterococcus faecalis (GC 4553) (Enterococcus sp.): 32 µg/mL (≈ 22 µM)
MIC Enterococcus faecalis (GC 4554) (Enterococcus sp.): 32 µg/mL (≈ 22 µM)
MIC Enterococcus faecalis (GC 6189) (Enterococcus sp.): 32 µg/mL (≈ 22 µM)
MIC Enterococcus faecium (GC 2243) (Enterococcus sp.): 32 µg/mL (≈ 22 µM)
MIC Enterococcus faecium (GC 4556) (Enterococcus sp.): 32 µg/mL (≈ 22 µM)
MIC Enterococcus faecium (GC 4557) (Enterococcus sp.): 16 µg/mL (≈ 11 µM)
MIC Enterococcus faecalis (GC 2242) (Enterococcus sp.; [4]): 32 µg/mL (≈ 22 µM)
MIC Enterococcus faecalis (GC 2691) (Enterococcus sp.; [4]): 32 µg/mL (≈ 22 µM)
MIC Enterococcus faecalis (GC 3059) (Enterococcus sp.; [4]): 32 µg/mL (≈ 22 µM)
MIC Streptococcus agalactiae (GC 4564) (Streptococcus sp.; [5]): 16 µg/mL (≈ 11 µM)
MIC Streptococcus pneumoniae (ATCC 6301) (Streptococcus sp.; [6]): 16 µg/mL (≈ 11 µM)
MIC Streptococcus pneumoniae (GC 1894) (Streptococcus sp.; [7]): 1 µg/mL (≈ 0.688 µM)
MIC Streptococcus pneumoniae (GC 4565) (Streptococcus sp.; [8]): 2 µg/mL (≈ 1.38 µM)
MIC Streptococcus pyogenes (GC 4563) (Streptococcus sp.; [9]): 8 µg/mL (≈ 5.5 µM)
MIC Streptococcus agalactiae (GC 4564) (Streptococcus sp.; [4]): 16 µg/mL (≈ 11 µM)
MIC Streptococcus pneumoniae (ATCC 6301) (Streptococcus sp.; [4]): 16 µg/mL (≈ 11 µM)
MIC Streptococcus pneumoniae (GC 1894) (Streptococcus sp.; [4]): 1 µg/mL (≈ 0.688 µM)
MIC Streptococcus pneumoniae (GC 4565) (Streptococcus sp.; [4]): 2 µg/mL (≈ 1.38 µM)
MIC Streptococcus pyogenes (GC 4563) (Streptococcus sp.; [4]): 8 µg/mL (≈ 5.5 µM)
MIC Coagulase Negative Staphylococcus (GC 4547) (Staphylococcus sp.): 32 µg/mL (≈ 22 µM)
MIC Coagulase Negative Staphylococcus (GC 4548) (Staphylococcus sp.): 32 µg/mL (≈ 22 µM)
MIC Coagulase Negative Staphylococcus (GC 4549) (Staphylococcus sp.): 16 µg/mL (≈ 11 µM)
MIC Coagulase Negative Staphylococcus (GC 4551) (Staphylococcus sp.): 32 µg/mL (≈ 22 µM)
MIC Coagulase Negative Staphylococcus (GC 6257) (Staphylococcus sp.): 16 µg/mL (≈ 11 µM)
MIC Staphylococcus aureus (ATCC 29213) (Staphylococcus sp.): 32 µg/mL (≈ 22 µM)
MIC Staphylococcus aureus (GC 1131) (Staphylococcus sp.): 32 µg/mL (≈ 22 µM)
MIC Staphylococcus aureus (GC 3051) (Staphylococcus sp.): 32 µg/mL (≈ 22 µM)
MIC Staphylococcus aureus (GC 3053) (Staphylococcus sp.): 32 µg/mL (≈ 22 µM)
MIC Staphylococcus aureus (GC 4541) (Staphylococcus sp.): 32 µg/mL (≈ 22 µM)
MIC Staphylococcus aureus (GC 4542) (Staphylococcus sp.): 32 µg/mL (≈ 22 µM)
MIC Staphylococcus aureus (GC 4544) (Staphylococcus sp.): 32 µg/mL (≈ 22 µM)
MIC Staphylococcus aureus (GC 4545) (Staphylococcus sp.): 32 µg/mL (≈ 22 µM)
MIC Staphylococcus aureus-SMITH (GC 4543) (Staphylococcus sp.): 32 µg/mL (≈ 22 µM)
SMILES: CC(c1ccccc1)C1NC(=O)CNC(=O)C(CO)NC(=O)C(C(O)C2CNC(=N)N2C2OC(CO)C(O)C(O)C2O)NC(=O)C(C(O)C2CNC(=N)N2)NC(=O)C(Cc2ccc(OC3OC(CO)C(OC4OC(CO)C(OCC=Cc5ccc(N(C)C)cc5)C(O)C4O)C(O)C3O)cc2)NC1=O (stereo not drawn) [Example 243a]
MIC Staphylococcus haemolyticus (GC 4546) (Staphylococcus sp.): 32 µg/mL (≈ 22 µM)

MIC Escherichia coli (ATCC 25922) (Escherichia coli): >64 µg/mL
MIC Escherichia coli (GC 4559) (Escherichia coli): 64 µg/mL (≈ 46 µM)
MIC Escherichia coli (GC 4560) (Escherichia coli): 2 µg/mL (≈ 1.44 µM)
MIC Enterococcus avium (GC 4558) (Enterococcus sp.): 32 µg/mL (≈ 23 µM)
MIC Enterococcus faecalis (ATCC 29212) (Enterococcus sp.): 32 µg/mL (≈ 23 µM)
MIC Enterococcus faecalis (GC 2242) (Enterococcus sp.; [1]): 32 µg/mL (≈ 23 µM)
MIC Enterococcus faecalis (GC 2691) (Enterococcus sp.; [2]): 32 µg/mL (≈ 23 µM)
MIC Enterococcus faecalis (GC 3059) (Enterococcus sp.; [3]): 64 µg/mL (≈ 46 µM)
MIC Enterococcus faecalis (GC 4552) (Enterococcus sp.): 32 µg/mL (≈ 23 µM)
MIC Enterococcus faecalis (GC 4553) (Enterococcus sp.): 32 µg/mL (≈ 23 µM)
MIC Enterococcus faecalis (GC 4554) (Enterococcus sp.): 64 µg/mL (≈ 46 µM)
MIC Enterococcus faecalis (GC 6189) (Enterococcus sp.): 32 µg/mL (≈ 23 µM)
MIC Enterococcus faecium (GC 2243) (Enterococcus sp.): 32 µg/mL (≈ 23 µM)
MIC Enterococcus faecium (GC 4556) (Enterococcus sp.): 32 µg/mL (≈ 23 µM)
MIC Enterococcus faecium (GC 4557) (Enterococcus sp.): 4 µg/mL (≈ 2.87 µM)
MIC Enterococcus faecalis (GC 2242) (Enterococcus sp.; [4]): 32 µg/mL (≈ 23 µM)
MIC Enterococcus faecalis (GC 2691) (Enterococcus sp.; [4]): 32 µg/mL (≈ 23 µM)
MIC Enterococcus faecalis (GC 3059) (Enterococcus sp.; [4]): 64 µg/mL (≈ 46 µM)
MIC Streptococcus agalactiae (GC 4564) (Streptococcus sp.; [5]): 4 µg/mL (≈ 2.87 µM)
MIC Streptococcus pneumoniae (ATCC 6301) (Streptococcus sp.; [6]): 1 µg/mL (≈ 0.719 µM)
MIC Streptococcus pneumoniae (GC 1894) (Streptococcus sp.; [7]): 0.5 µg/mL (≈ 0.359 µM)
MIC Streptococcus pneumoniae (GC 4565) (Streptococcus sp.; [8]): 1 µg/mL (≈ 0.719 µM)
MIC Streptococcus pyogenes (GC 4563) (Streptococcus sp.; [9]): 2 µg/mL (≈ 1.44 µM)
MIC Streptococcus agalactiae (GC 4564) (Streptococcus sp.; [4]): 4 µg/mL (≈ 2.87 µM)
MIC Streptococcus pneumoniae (ATCC 6301) (Streptococcus sp.; [4]): 1 µg/mL (≈ 0.719 µM)
MIC Streptococcus pneumoniae (GC 1894) (Streptococcus sp.; [4]): 0.5 µg/mL (≈ 0.359 µM)
MIC Streptococcus pneumoniae (GC 4565) (Streptococcus sp.; [4]): 1 µg/mL (≈ 0.719 µM)
MIC Streptococcus pyogenes (GC 4563) (Streptococcus sp.; [4]): 2 µg/mL (≈ 1.44 µM)
MIC Coagulase Negative Staphylococcus (GC 4547) (Staphylococcus sp.): 4 µg/mL (≈ 2.87 µM)
MIC Coagulase Negative Staphylococcus (GC 4548) (Staphylococcus sp.): 2 µg/mL (≈ 1.44 µM)
MIC Coagulase Negative Staphylococcus (GC 4549) (Staphylococcus sp.): 2 µg/mL (≈ 1.44 µM)
MIC Coagulase Negative Staphylococcus (GC 4551) (Staphylococcus sp.): 4 µg/mL (≈ 2.87 µM)
MIC Coagulase Negative Staphylococcus (GC 6257) (Staphylococcus sp.): 2 µg/mL (≈ 1.44 µM)
MIC Staphylococcus aureus (ATCC 29213) (Staphylococcus sp.): 8 µg/mL (≈ 5.75 µM)
MIC Staphylococcus aureus (GC 1131) (Staphylococcus sp.): 8 µg/mL (≈ 5.75 µM)
MIC Staphylococcus aureus (GC 3051) (Staphylococcus sp.): 8 µg/mL (≈ 5.75 µM)
MIC Staphylococcus aureus (GC 3053) (Staphylococcus sp.): 16 µg/mL (≈ 11.5 µM)
MIC Staphylococcus aureus (GC 4541) (Staphylococcus sp.): 8 µg/mL (≈ 5.75 µM)
MIC Staphylococcus aureus (GC 4542) (Staphylococcus sp.): 1 µg/mL (≈ 0.719 µM)
MIC Staphylococcus aureus (GC 4544) (Staphylococcus sp.): 8 µg/mL (≈ 5.75 µM)
MIC Staphylococcus aureus (GC 4545) (Staphylococcus sp.): 8 µg/mL (≈ 5.75 µM)
MIC Staphylococcus aureus-SMITH (GC 4543) (Staphylococcus sp.): 4 µg/mL (≈ 2.87 µM)
SMILES: CC(c1ccccc1)C1NC(=O)CNC(=O)C(CO)NC(=O)C(C(O)C2CNC(=N)N2C2OC(CO)C(O)C(O)C2O)NC(=O)C(C(O)C2CNC(=N)N2)NC(=O)C(Cc2ccc(OC3OC(CO)C(OC4OC(COCc5cccs5)C(O)C(O)C4O)C(O)C3O)cc2)NC1=O (stereo not drawn) [Example 244, Cyclo[glycyl-β-methylphenylalanyl-O-[4-O-[6-O-(2-thienylmethyl)hexopyranosyl]hexopyranosyl]tyrosyl-3-(2-iminoimidazolidin-4-yl)seryl-3-(3-hexopyranosyl-2-iminoimidazolidin-4-yl)serylseryl]]
MIC Staphylococcus haemolyticus (GC 4546) (Staphylococcus sp.): 4 µg/mL (≈ 2.87 µM)

MIC Escherichia coli (GC 4560) (Escherichia coli): 32 µg/mL (≈ 22.3 µM)
MIC Enterococcus faecium (GC 4557) (Enterococcus sp.): 64 µg/mL (≈ 44.6 µM)
MIC Streptococcus pneumoniae (ATCC 6301) (Streptococcus sp.; [6]): 64 µg/mL (≈ 44.6 µM)
MIC Streptococcus pneumoniae (GC 1894) (Streptococcus sp.; [7]): 32 µg/mL (≈ 22.3 µM)
MIC Streptococcus pneumoniae (GC 4565) (Streptococcus sp.; [8]): 64 µg/mL (≈ 44.6 µM)
MIC Streptococcus pneumoniae (ATCC 6301) (Streptococcus sp.; [4]): 64 µg/mL (≈ 44.6 µM)
MIC Streptococcus pneumoniae (GC 1894) (Streptococcus sp.; [4]): 32 µg/mL (≈ 22.3 µM)
MIC Streptococcus pneumoniae (GC 4565) (Streptococcus sp.; [4]): 64 µg/mL (≈ 44.6 µM)
MIC Coagulase Negative Staphylococcus (GC 4549) (Staphylococcus sp.): 64 µg/mL (≈ 44.6 µM)
MIC Coagulase Negative Staphylococcus (GC 6257) (Staphylococcus sp.): 64 µg/mL (≈ 44.6 µM)
SMILES: COc1ccc2cc(COC3C(OC4C(CO)OC(Oc5ccc(CC6NC(=O)C(C(C)c7ccccc7)NC(=O)CNC(=O)C(CO)NC(=O)C(CC7CNC(=N)N7C7OC(CO)C(O)C(O)C7O)NC(=O)C(CC7CNC(=N)N7)NC6=O)cc5)C(O)C4O)OC(CO)C(O)C3O)ccc2c1 (stereo not drawn) [Example 245c, Cyclo[3-(2-iminoimidazolidin-4-yl)alanyl-3-(3-hexopyranosyl-2-iminoimidazolidin-4-yl)-alanylserylglycyl-62-methylphenylalanyl-O-[4-O-[2-O-[(6-methoxy-2-naphthyl)methyl]-hexopyranosyl]hexopyranosyl]tyrosyl]]
